Columns and labels:
[1] = target: IRAK4 (Homo sapiens (Human), UniProt Q9NWZ3); test: IRAK4 Inhibition Assay; format: biochemical; conditions: ATP 500 μM; IRAK4 0.6 nM; 60 min at room temperature
Experimental: The assays were performed in U-bottom 384-well plates. The final assay volume was 30 μL prepared from 15 μL additions of enzyme and substrates (fluoresceinated peptide and ATP) and test compounds in assay buffer (20 mM HEPES pH 7.2, 10 mM MgCl2, 0.015% Brij 35 and 4 mM DTT). The reaction was initiated by the combination of IRAK4 with substrates and test compounds. The reaction mixture was incubated at room temperature for 60 min. and terminated by adding 45 μL of 35 mM EDTA to each sample. The reaction mixture was analyzed on the Caliper LABCHIP® 3000 (Caliper, Hopkinton, MA) by electrophoretic separation of the fluorescent substrate and phosphorylated product. Inhibition data were calculated by comparison to no enzyme control reactions for 100% inhibition and vehicle-only reactions for 0% inhibition. The final concentrations of reagents in the assays are ATP, 500 μM; FL-IPTSPITTTYFFFKKK peptide 1.5 μM; IRAK4, 0.6 nM; and DMSO, 1.6%.

[2] = test system: IL-6 levels in human whole blood stimulated with a TLR2 agonist (lipoteichoic acid); test: IRAK4 Whole Blood Assay; format: cell-based; conditions: 10 μg/mL lipoteichoic acid for 5 hours, IL-6 readout
Experimental: Human whole blood containing the anti-coagulant ACD-A was plated in 384-well plate (25 μL/well) and incubated with compounds for 60 minutes at 37° C. in a 5% CO2 incubator. The blood was stimulated with a TLR2 agonist, 10 μg/mL final concentration of lipoteichoic acid (Invivogen, San Diego, CA) in 25 μL RPMI (Gibco) for 5 hours in a 5% CO2 incubator. At the end of the incubation, plates were centrifuged at 2300 rpm for 5 minutes. Supernatants were harvested and analyzed for IL-6 levels by Flow Cytometry beads assay (BD Biosciences, San Jose, CA).

IRAK4, sequence (Q9NWZ3 whole entry, species assumed): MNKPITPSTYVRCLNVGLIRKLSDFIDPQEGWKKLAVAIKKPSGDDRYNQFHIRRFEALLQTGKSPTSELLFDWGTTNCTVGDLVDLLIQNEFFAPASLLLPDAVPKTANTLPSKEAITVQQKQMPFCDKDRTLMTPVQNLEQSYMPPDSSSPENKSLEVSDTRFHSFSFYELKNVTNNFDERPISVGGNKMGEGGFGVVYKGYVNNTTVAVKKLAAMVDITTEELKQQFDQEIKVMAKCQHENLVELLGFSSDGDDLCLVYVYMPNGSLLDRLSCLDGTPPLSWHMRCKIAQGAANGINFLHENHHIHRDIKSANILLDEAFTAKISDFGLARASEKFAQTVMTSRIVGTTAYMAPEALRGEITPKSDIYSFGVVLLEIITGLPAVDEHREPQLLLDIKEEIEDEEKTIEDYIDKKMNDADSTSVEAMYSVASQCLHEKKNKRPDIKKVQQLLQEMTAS

Row | Compound | IC50 [1] | EC50 [2]
1 | CC(C)Nc1c(C(=O)NC[C@@H](F)C(C)(C)O)cnc2sc(-c3cccnc3)cc12 [Example 22, (R)-N-(2-fluoro-3-hydroxy-3-methylbutyl)-4-(isopropylamino)-2-(pyridin-3-yl)thieno[2,3-b]pyridine-5-carboxamide] | 5.3 nM | 3420 nM
2 | CC(C)Nc1c(C(=O)NC[C@@H](F)C(C)(C)O)cnc2sc(-c3ccncc3)cc12 [Example 23, (R)-N-(2-fluoro-3-hydroxy-3-methylbutyl)-4-(isopropylamino)-2-(pyridin-4-yl) thieno[2,3-b]pyridine-5-carboxamide] | 4.8 nM | 4250 nM
3 | CC(C)Nc1c(C(=O)NC[C@@H](F)C(C)(C)O)cnc2sc(-c3cccc(C#N)c3)cc12 [Example 24, (R)-2-(3-cyanophenyl)-N-(2-fluoro-3-hydroxy-3-methylbutyl)-4-(isopropylamino)thieno[2,3-b]pyridine-5-carboxamide] | 16.8 nM | > 20000 nM
4 | CC(C)Nc1c(C(=O)NC[C@@H](F)C(C)(C)O)cnc2sc(-c3ccc(C#N)nc3)cc12 [Example 25, (R)-2-(6-cyanopyridin-3-yl)-N-(2-fluoro-3-hydroxy-3-methylbutyl)-4-(isopropylamino) thieno[2,3-b]pyridine-5-carboxamide] | 18.9 nM | > 20000 nM
5 | CC(C)Nc1c(C(=O)NC[C@@H](F)C(C)(C)O)cnc2sc(-c3cncs3)cc12 [Example 27, (R)-N-(2-fluoro-3-hydroxy-3-methylbutyl)-4-(isopropylamino)-2-(thiazol-5-yl) thieno[2,3-b]pyridine-5-carboxamide] | 2 nM | 580 nM
6 | CC(C)CCNC(=O)c1cnc2sc(-c3ccncc3)cc2c1NC(C)C [Example 29, N-isopentyl-4-(isopropylamino)-2-(pyridin-4-yl)thieno[2,3-b]pyridine-5-carboxamide] | 12.9 nM | 2400 nM
7 | CC(C)CCNC(=O)c1cnc2sc(-c3cncs3)cc2c1NC(C)C [Example 30, N-isopentyl-4-(isopropylamino)-2-(thiazol-5-yl)thieno[2,3-b]pyridine-5-carboxamide] | 7.5 nM | > 20000 nM
8 | CC(C)Nc1c(C(=O)NC[C@@H](F)C(C)(C)O)cnc2sc(-c3ccnnc3)cc12 [Example 32, (R)-N-(2-fluoro-3-hydroxy-3-methylbutyl)-4-(isopropylamino)-2-(pyridazin-4-yl)thieno[2,3-b]pyridine-5-carboxamide] | 10.3 nM | > 20000 nM
9 | CC(C)Nc1c(C(=O)N[C@H]2CC[C@H](N)CC2)cnc2sc(-c3cncs3)cc12 [Example 38, N-((1r,4r)-4-aminocyclohexyl)-4-(isopropylamino)-2-(thiazol-5-yl)thieno[2,3-b]pyridine-5-carboxamide] | 12.3 nM | 5040 nM
10 | CC(C)Nc1c(C(=O)NCc2ncn[nH]2)cnc2sc(-c3cncs3)cc12 [Example 42, N-((1H-1,2,4-triazol-5-yl)methyl)-4-(isopropylamino)-2-(thiazol-5-yl)thieno[2,3-b]pyridine-5-carboxamide] | 12.2 nM | > 20000 nM
11 | CCOCCNC(=O)c1cnc2sc(-c3cncs3)cc2c1NC(C)C [Example 43, N-(2-ethoxyethyl)-4-(isopropylamino)-2-(thiazol-5-yl)thieno[2,3-b]pyridine-5-carboxamide] | 17.1 nM | > 20000 nM
12 | CC(C)Nc1c(C(=O)NCCC(C)(C)O)cnc2sc(-c3cncs3)cc12 [Example 44, N-(3-hydroxy-3-methylbutyl)-4-(isopropylamino)-2-(thiazol-5-yl)thieno[2,3-b]pyridine-5-carboxamide] | 8.2 nM | 660 nM
13 | COC(=O)N[C@H]1CC[C@H](NC(=O)c2cnc3sc(-c4cncs4)cc3c2NC(C)C)CC1 [Example 50, methyl ((1r,4r)-4-(4-(isopropylamino)-2-(thiazol-5-yl)thieno[2,3-b]pyridine-5-carboxamido)cyclohexyl)carbamate] | 9.3 nM | 5310 nM
14 | CC(C)(O)[C@H](F)CNC(=O)c1cnc2sc(-c3cncs3)cc2c1NC1COC1 [Example 53, (R)-N-(2-fluoro-3-hydroxy-3-methylbutyl)-4-(oxetan-3-ylamino)-2-(thiazol-5-yl)thieno[2,3-b]pyridine-5-carboxamide] | 15.1 nM | 3650 nM
15 | CC(C)Nc1c(C(=O)NC[C@@H](F)C(C)(C)O)cnc2sc(-c3cnc(N)s3)cc12 [Example 56, (R)-2-(2-aminothiazol-5-yl)-N-(2-fluoro-3-hydroxy-3-methylbutyl)-4-(isopropylamino)thieno[2,3-b]pyridine-5-carboxamide] | 6 nM | > 10000 nM
16 | Cc1ncc(-c2cc3c(NC(C)C)c(C(=O)NC[C@@H](F)C(C)(C)O)cnc3s2)s1 [Example 57, (R)-N-(2-fluoro-3-hydroxy-3-methylbutyl)-4-(isopropylamino)-2-(2-methylthiazol-5-yl)thieno[2,3-b]pyridine-5-carboxamide] | 8.2 nM | 3540 nM
17 | CC(C)Nc1c(C(=O)NC[C@@H](F)C(C)(C)O)cnc2sc(-c3ccc(=O)[nH]c3)cc12 [Example 59, (R)-N-(2-fluoro-3-hydroxy-3-methylbutyl)-4-(isopropylamino)-2-(6-oxo-1,6-dihydropyridin-3-yl)thieno[2,3-b]pyridine-5-carboxamide] | 3.8 nM | 190 nM
18 | CC(O)CCNC(=O)c1cnc2sc(-c3cncs3)cc2c1NC(C)C (centres unmarked) [Example 60, N-(3-hydroxybutyl)-4-(isopropylamino)-2-(thiazol-5-yl)thieno[2,3-b]pyridine-5-carboxamide] | 10.8 nM | > 10000 nM
19 | CC(C)Nc1c(C(=O)NCCC2(O)CC(F)(F)C2)cnc2sc(-c3cncs3)cc12 [Example 63, N-(2-(3,3-difluoro-1-hydroxycyclobutyl)ethyl)-4-(isopropylamino)-2-(thiazol-5-yl)thieno[2,3-b]pyridine-5-carboxamide] | 5.4 nM | 2340 nM
20 | CC(C)Nc1c(C(=O)NCCN2CCS(=O)(=O)CC2)cnc2sc(-c3cncs3)cc12 [Example 68, N-(2-(1,1-dioxidothiomorpholino)ethyl)-4-(isopropylamino)-2-(thiazol-5-yl)thieno[2,3-b]pyridine-5-carboxamide] | 10.9 nM | > 20000 nM
21 | CC(C)Nc1c(C(=O)NCCc2ccncc2)cnc2sc(-c3ccc(=O)[nH]c3)cc12 [Example 71, 4-(isopropylamino)-2-(6-oxo-1,6-dihydropyridin-3-yl)-N-(2-(pyridin-4-yl)ethyl)thieno[2,3-b]pyridine-5-carboxamide] | 5.2 nM | > 20000 nM
22 | CC(C)Nc1c(C(=O)NCCc2cccnc2)cnc2sc(-c3ccc(=O)[nH]c3)cc12 [Example 72, 4-(isopropylamino)-2-(6-oxo-1,6-dihydropyridin-3-yl)-N-(2-(pyridin-3-yl)ethyl)thieno[2,3-b]pyridine-5-carboxamide] | 6.7 nM | > 20000 nM
23 | CC(C)Nc1c(-c2cn(CC3CC3)nn2)cnc2sc(-c3cncs3)cc12 [Example 78, 5-(1-(cyclopropylmethyl)-1H-1,2,3-triazol-4-yl)-N-isopropyl-2-(thiazol-5-yl)thieno[2,3-b]pyridin-4-amine] | 8.8 nM | > 20000 nM
24 | CC(C)Nc1c(-c2cn(CCCO)nn2)cnc2sc(-c3cncs3)cc12 [Example 79, 3-(4-(4-(isopropylamino)-2-(thiazol-5-yl)thieno[2,3-b]pyridin-5-yl)-1H-1,2,3-triazol-1-yl)propan-1-ol] | 2.3 nM | > 10000 nM
25 | CC(C)Nc1c(-c2cn(CCCO)nn2)cnc2sc(-c3ccc(=O)[nH]c3)cc12 [Example 80, 5-(5-(1-(3-hydroxypropyl)-1H-1,2,3-triazol-4-yl)-4-(isopropylamino)thieno[2,3-b]pyridin-2-yl) pyridin-2(1H)-one] | 5.2 nM | 420 nM

Reference: patent publication US12304916B2, “Thienopyridinyl and thiazolopyridinyl compounds useful as IRAK4 inhibitors” (BRISTOL-MYERS SQUIBB COMPANY, priority 2019, dated 2025)
